The values that follow come from article PMC4577729, “7-(Pyrazol-4-yl)-3H-imidazo[4,5-b]pyridine-based derivatives for kinase inhibition: Co-crystallisation studies with Aurora-A reveal distinct differences in the orientation of the pyrazole N1-substituent” (Bioorganic & Medicinal Chemistry Letters, 2015).

In data set [1] the target is T1, Aurora B (Homo sapiens, UniProt Q96GD4). The data set can be described thus: Aurora-B microfluidic kinase assay. The settings on record: biochemical; mean of two determinations or mean ±SD for n > 2. The source says:
(§1) As part of our medicinal chemistry programme to discover selective inhibitors of Aurora-A,[12] we introduced the 1-benzyl-1H-pyrazol-4-yl moiety at C7 of the imidazo[4,5-b]pyridine scaffold to provide 7a (Table 1). We previously reported 1,3-dimethyl-1H-pyrazol-4-yl as a preferred substituent at the C2 position of the imidazo[4,5-b]pyridine scaffold[11] and this moiety was therefore incorporated into the design of 7a and analogues presented in this study. […] This in vitro profile prompted us to investigate this C7-pyrazole substituted imidazo[4,5-b]pyridine subseries in more detail. Firstly, we attempted to increase biochemical potency against Aurora-A, and also to improve microsomal stability.
[17] Aurora-A and Aurora-B IC50 values were determined by using a microfluidic assay which monitors the separation of a phosphorylated product from its substrate, as described in Ref. [12].

A short description of data set [2]: Mouse liver microsomal stability. As to conditions: percentage of compound metabolised after a 30 min incubation, mouse liver microsomes. The data set is classed as in vitro ADME. The procedure: [18] MLM and HLM microsomal stabilities were determined as described in Ref. [12].
In general terms: Microsomes from liver hold many membrane-bound enzymes, among them those of drug oxidation.

Another data set deals with T2, Aurora A (Homo sapiens, UniProt O14965).
T2 sequence (O14965 1-403): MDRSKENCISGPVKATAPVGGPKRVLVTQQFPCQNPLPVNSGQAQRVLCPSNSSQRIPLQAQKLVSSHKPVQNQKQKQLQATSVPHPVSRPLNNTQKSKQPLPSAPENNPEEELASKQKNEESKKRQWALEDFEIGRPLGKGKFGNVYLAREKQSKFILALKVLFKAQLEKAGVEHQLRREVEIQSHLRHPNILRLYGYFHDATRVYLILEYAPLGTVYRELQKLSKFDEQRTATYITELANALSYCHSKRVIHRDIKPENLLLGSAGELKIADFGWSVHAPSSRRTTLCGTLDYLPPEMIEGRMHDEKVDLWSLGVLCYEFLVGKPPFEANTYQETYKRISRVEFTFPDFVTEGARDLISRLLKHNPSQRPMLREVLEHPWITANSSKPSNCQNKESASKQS
The data set can be described thus: Aurora-A autophosphorylation at T288 in HeLa cells. It is filed as cell-based. As to conditions: read-out: p-T288 IC50 (Aurora-A autophosphorylation).
Description: as §1

Data set [3] has as its target T1, Aurora B. The data set can be described thus: Histone H3 phosphorylation at S10 in HeLa cells. The data set is classed as cell-based. As to conditions: read-out: p-HH3 IC50 (histone H3 phosphorylation at S10).
Description: as §1

Data set [4] has as its system SW620 human colon carcinoma cells. The data set is described as follows: SW620 cell growth inhibition. The data set is classed as cell-based. The settings on record: 72 h incubation.
Description: as §1

Data set [5] can be described thus: Protein binding in microsomal incubations (MLM). The data set is classed as in vitro ADME, mouse. The procedure: (§2) For a better understanding of the microsomal stability data, the protein binding for 7a, 7d and 7e in microsomal incubations was measured. The percentage of 7a unbound in MLM and HLM was determined as 6.71 and 4.89, respectively. Compounds 7d and 7e were more highly bound: for 7d the percentage unbound was 0.50 in both MLM and HLM and for 7e was 0.16 and 0.10, respectively. […] The potent cell-based activity prompted us to investigate kinome selectivity profiles for this class of compound by screening 7a and 7d in a 102-kinase panel at a concentration of 1 μM.[20] […] The Gini coefficient for compound 3 was reported as 0.719,[12] and the corresponding value for compound 1 is 0.560. To understand the potential for further improvement, we obtained the crystal structure of 7a bound to Aurora-A[22] (Fig. 3, Table S3, Supplementary data). […] Similar to crystal structures of previous compounds 1, 15 and 16 (Figs. 1 and 2; compounds 51 and 40c in Ref. [10], and compound 21a in Ref. [11], respectively) the N-benzyl substituent on the C7-pyrazole is oriented towards the P-loop, making Van der Waals contacts with Val147 and Gly142 (Fig. 3).

The nature of data set [6]: Protein binding in microsomal incubations (HLM). The data set is classed as in vitro ADME, human. On the procedure: as §2
Data set [7] in a line: In vivo mouse pharmacokinetic profiling. On the procedure: (§3) The mouse plasma protein binding for 7a and 7d was determined as 99.48% and >99.9%, respectively. […] In an attempt to improve the aqueous solubility, the Aurora inhibitory potency and kinase selectivity of this sub-series, we explored the introduction of basic substituents such as 1-methylpiperazine and pyrrolidine as well as replacement of the phenyl ring with a more polar heterocycle. […] It was anticipated that the introduction of small substituents on the phenyl ring in 7a would be well tolerated without altering its orientation in the kinase active site. Alternatively, we envisaged that Thr217 in Aurora-A may be accessed via an appropriate pyrazole N1-benzyl derivatisation such as a bulky amido substituent, which would form a favourable hydrogen bond interaction with the side chain hydroxyl of Thr217. Similar approaches were previously applied by us in the design of selective inhibitors of Aurora-A.[12,16]

Data set [8] can be described thus: Mouse plasma protein binding. The data set is classed as in vitro ADME. On the procedure: as §3
Another data set in a line: Kinetic solubility. The data set is classed as physicochemical. The settings on record: phosphate buffer, pH = 6.8. On the procedure:
as §3
[23] Solubility measurements were performed by Pharmorphix® Solid State Services, Member of the Sigma–Aldrich Group, Cambridge, UK.

In data set [9] the target is T1, Aurora B. The data set is described as follows: Kinase selectivity profiling. It is filed as biochemical. As to conditions: 1 µM, assay duplicates. An outline of the steps:
(§4)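 Each compound was tested at a single concentration of 1 µM within a broad panel of 102 or 105 protein kinases run by an external profiling centre.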

The next data set has as its target EPH-B4 (Homo sapiens, UniProt P54760). The data set is described as follows: Kinase selectivity profiling. The settings on record: 1 µM, assay duplicates. The data set is classed as biochemical. The gist of the method: as §4
Another data set has as its target CLK2 (Homo sapiens, UniProt P49760). The data set is described as follows: Kinase selectivity profiling. The data set is classed as biochemical. As to conditions: 1 µM, assay duplicates. On the procedure:
(§5) [20] Kinase selectivity profiling for compounds 7a, 7d, 14d and 14g was carried out at the International Centre for Protein Kinase Profiling, Division of Signal Transduction Therapy, University of Dundee.
(§6) Table S2: Kinase selectivity profiling of compounds 14d and 14g in a 105-kinase panel screened at a concentration of 1 µM.

Another data set has as its target DAPK1 (Homo sapiens, UniProt P53355). The data set can be described thus: Kinase selectivity profiling. The data set is classed as biochemical. As to conditions: 1 µM, assay duplicates. On the procedure:
as §5, §6

In another data set the target is EPH-B2 (Homo sapiens, UniProt P29323). The data set can be described thus: Kinase selectivity profiling. The data set is classed as biochemical. The settings on record: 1 µM, assay duplicates. On the procedure:
as §5, §6

T1 sequence (Q96GD4 whole entry): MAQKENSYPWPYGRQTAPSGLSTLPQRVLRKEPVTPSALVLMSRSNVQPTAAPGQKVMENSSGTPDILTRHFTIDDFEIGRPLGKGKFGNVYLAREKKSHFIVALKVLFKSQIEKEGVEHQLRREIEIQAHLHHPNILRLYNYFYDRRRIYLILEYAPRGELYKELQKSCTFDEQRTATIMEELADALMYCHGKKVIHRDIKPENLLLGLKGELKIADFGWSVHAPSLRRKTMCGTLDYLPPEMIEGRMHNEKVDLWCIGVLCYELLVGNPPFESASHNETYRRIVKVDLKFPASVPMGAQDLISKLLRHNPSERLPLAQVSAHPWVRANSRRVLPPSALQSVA
Chain of EPH-B2 (P29323 19-1055): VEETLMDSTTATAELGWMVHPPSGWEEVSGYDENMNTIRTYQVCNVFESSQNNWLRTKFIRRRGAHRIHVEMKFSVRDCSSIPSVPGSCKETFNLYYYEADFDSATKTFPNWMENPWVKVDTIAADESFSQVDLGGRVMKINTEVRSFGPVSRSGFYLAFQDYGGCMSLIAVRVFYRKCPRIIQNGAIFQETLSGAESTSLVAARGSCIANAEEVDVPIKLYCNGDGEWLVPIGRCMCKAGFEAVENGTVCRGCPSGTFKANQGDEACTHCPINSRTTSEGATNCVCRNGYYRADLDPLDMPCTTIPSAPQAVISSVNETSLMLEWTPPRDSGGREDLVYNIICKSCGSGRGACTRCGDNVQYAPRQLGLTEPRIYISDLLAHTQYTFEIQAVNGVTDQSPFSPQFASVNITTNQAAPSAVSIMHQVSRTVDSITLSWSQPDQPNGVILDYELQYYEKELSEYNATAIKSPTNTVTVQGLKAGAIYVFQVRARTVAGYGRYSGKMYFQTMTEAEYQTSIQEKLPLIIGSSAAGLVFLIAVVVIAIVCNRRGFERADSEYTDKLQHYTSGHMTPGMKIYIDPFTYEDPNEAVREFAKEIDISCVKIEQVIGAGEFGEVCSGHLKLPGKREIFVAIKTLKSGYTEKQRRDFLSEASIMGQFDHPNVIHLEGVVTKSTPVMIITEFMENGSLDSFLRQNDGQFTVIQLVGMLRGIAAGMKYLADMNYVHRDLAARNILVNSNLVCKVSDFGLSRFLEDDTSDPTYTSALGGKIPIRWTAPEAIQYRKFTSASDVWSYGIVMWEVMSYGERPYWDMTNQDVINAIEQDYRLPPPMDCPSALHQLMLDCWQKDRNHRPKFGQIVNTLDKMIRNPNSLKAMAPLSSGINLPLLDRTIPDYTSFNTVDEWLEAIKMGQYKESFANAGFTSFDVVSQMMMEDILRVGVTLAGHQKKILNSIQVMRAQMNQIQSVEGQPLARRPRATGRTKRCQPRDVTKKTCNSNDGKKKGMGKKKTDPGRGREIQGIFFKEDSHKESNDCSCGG
Chain of EPH-B4 (P54760 16-987): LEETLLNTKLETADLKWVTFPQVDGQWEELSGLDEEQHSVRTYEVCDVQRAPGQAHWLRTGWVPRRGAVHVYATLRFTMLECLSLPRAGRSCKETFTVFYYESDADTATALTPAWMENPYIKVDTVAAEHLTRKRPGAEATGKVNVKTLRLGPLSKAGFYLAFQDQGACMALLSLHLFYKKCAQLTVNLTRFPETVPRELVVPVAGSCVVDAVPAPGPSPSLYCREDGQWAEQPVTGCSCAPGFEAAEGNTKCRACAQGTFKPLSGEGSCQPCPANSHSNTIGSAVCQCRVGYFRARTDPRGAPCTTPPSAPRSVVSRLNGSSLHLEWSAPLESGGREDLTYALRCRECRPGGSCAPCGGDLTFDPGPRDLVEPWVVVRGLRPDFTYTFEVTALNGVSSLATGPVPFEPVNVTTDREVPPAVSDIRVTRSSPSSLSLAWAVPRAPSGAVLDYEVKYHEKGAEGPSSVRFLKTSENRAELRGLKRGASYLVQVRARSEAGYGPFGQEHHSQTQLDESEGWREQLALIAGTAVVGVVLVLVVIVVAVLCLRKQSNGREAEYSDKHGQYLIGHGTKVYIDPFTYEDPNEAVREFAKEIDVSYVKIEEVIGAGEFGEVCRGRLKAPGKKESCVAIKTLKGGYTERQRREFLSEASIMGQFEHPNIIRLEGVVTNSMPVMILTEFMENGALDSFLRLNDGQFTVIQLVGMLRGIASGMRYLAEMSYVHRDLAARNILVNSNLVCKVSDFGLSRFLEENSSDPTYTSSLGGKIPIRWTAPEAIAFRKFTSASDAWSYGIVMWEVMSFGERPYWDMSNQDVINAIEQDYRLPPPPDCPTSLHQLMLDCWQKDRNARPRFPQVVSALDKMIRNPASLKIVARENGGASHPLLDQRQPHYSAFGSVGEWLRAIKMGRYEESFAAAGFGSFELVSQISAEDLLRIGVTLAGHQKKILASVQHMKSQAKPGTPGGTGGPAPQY
Chain of DAPK1 (P53355 whole entry): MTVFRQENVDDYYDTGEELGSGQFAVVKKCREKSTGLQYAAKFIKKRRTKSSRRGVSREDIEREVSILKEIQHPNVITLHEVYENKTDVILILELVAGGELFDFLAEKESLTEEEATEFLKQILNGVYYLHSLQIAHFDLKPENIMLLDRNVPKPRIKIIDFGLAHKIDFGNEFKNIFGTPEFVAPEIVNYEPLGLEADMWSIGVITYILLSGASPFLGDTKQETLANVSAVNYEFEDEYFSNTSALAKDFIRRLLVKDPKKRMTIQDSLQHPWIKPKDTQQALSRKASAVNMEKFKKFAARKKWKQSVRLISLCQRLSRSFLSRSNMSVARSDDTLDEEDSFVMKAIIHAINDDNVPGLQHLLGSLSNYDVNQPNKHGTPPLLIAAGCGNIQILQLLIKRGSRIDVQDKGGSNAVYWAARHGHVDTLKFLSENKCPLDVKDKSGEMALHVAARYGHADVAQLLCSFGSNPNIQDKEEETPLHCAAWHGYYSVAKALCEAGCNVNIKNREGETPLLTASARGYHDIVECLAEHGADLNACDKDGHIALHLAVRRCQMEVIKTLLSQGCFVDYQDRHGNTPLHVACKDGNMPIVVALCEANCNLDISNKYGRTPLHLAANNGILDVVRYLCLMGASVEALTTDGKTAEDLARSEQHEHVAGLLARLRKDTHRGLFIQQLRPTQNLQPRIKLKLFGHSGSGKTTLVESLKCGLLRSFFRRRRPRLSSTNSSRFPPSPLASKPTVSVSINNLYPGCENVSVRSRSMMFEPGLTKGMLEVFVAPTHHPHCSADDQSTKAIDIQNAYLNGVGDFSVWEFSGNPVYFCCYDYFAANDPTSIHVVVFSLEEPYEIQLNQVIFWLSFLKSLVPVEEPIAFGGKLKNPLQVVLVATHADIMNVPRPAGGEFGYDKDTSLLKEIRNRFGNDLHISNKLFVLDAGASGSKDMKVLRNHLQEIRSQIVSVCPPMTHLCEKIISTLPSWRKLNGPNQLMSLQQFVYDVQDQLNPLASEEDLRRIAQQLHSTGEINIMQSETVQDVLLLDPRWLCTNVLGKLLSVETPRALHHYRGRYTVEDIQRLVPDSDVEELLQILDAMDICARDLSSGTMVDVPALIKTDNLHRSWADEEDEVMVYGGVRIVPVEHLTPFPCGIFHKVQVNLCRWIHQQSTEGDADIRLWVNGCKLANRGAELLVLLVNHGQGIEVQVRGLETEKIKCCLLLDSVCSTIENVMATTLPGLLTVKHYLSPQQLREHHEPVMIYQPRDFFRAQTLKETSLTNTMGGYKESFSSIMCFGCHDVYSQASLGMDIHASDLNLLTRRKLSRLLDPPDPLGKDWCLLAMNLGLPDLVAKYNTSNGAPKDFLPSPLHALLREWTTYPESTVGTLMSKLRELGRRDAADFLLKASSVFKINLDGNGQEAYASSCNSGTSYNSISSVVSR
Chain of CLK2 (P49760 whole entry): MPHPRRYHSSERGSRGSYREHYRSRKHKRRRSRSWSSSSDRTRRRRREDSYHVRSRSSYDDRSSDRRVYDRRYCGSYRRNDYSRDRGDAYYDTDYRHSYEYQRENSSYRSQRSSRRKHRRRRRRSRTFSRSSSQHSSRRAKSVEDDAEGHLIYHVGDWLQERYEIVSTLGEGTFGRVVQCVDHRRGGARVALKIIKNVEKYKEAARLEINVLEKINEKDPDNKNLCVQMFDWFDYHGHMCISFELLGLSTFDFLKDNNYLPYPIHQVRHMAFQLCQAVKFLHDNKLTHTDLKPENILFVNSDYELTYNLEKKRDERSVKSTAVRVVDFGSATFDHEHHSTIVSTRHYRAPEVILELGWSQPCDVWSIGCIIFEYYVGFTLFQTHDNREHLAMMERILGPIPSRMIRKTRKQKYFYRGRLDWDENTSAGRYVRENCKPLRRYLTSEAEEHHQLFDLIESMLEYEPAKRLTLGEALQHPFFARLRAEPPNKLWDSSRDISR

As to `Cc1nn(C)cc1-c1nc2c(-c3cnn(Cc4ccccc4)c3)c(Cl)cnc2[nH]1` [Compound 7a], the IC50 at Aurora B [1] turned out to be 461 ± 147 nM; at Aurora A, 87 nM; on Aurora B [3] it was 223 nM. Besides, in data set [2], the “MLM % met/30 min” value was found to be 40%. Besides, the GI50 in [4] came to 180 nM. Besides, in data set [5], the “percentage unbound in MLM” value is 6.71%. The “percentage unbound in HLM” value in data set [6] is 4.89%. In data set [7], this compound registered an oral bioavailability of 13%. For the same compound, in data set [8], the “mouse plasma protein binding” value was determined as 99.48%. Besides, the kinetic solubility in “Kinetic solubility” is < 0.1 µg/mL.
For the compound `Cc1cc(Cn2cc(-c3c(Cl)cnc4[nH]c(-c5cn(C)nc5C)nc34)cn2)no1` [Compound 14d], the IC50 against Aurora B [1] was determined as 75 nM. In [2], the “MLM % met/30 min” value was found to be 35%. Besides, in [4], the concentration for 50% growth inhibition (GI50) was 350 nM. The “Aurora B % activity remaining” value at Aurora B [9] is on record as 8%. Moreover, at EPH-B4, the “EPH-B4 % activity remaining” value is recorded as 86%. Further, the “CLK2 % activity remaining” value at CLK2 came out at 2%. Further, on DAPK1, the “DAPK1 % activity remaining” value came out at 24%. For the same compound, on EPH-B2, the “EPH-B2 % activity remaining” value turned out to be 60%.

By IC50 is commonly meant the concentration at which inhibition is half-maximal. For orientation: GI50 means the concentration that inhibits growth by half. Low values mean more potent growth inhibition, high ones less potent growth inhibition.
